Data taken from the METLIN SMRT retention time set (Domingo-Almenara et al. 2019).

Assay: gradient 5% acetonitrile 3 min, to 50% in 2 min, to 85% in 15 min, held 3 min, 100 µL/min
Details: column: Zorbax Extend-C18 2.1 x 50 mm; eluents: water / acetonitrile, 0.1% formic acid
Method in brief: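 Standards, all pure, were combined into mixtures of ~100 molecules and run at 100 μL/min on a Zorbax Extend-C18 column (2.1 × 50 mm, 1.8 μm) with water and acetonitrile, each containing 0.1% formic acid. A coupled quadrupole time-of-flight mass spectrometer operated in positive and negative ionization mode. Retention time values come from computationally picked adduct peaks, each inspected manually.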

COc1ccccc1NC(=O)Nc1ccc2nc3n(c(=O)c2c1)CCC3
RP-LC retention time: 698 s

Cc1cc2[nH]c(C(=O)NC(C)c3cccnc3)c(CN3CCCCC3)c2s1 (stereo not drawn)
RP-LC retention time: 587 s

CCOc1cccc(CNC(=O)C2CCc3nc(N4CCCCC4)ncc3C2)c1 (stereo not drawn)
RP-LC retention time: 777 s

O=C(NCCc1c[nH]c2ccccc12)c1noc2c1CCc1sccc1-2
RP-LC retention time: 1050 s

CCOC(=O)c1nc(Nc2ccccc2F)c2ccccc2n1
RP-LC retention time: 812 s

CCN1CCN(C(=O)CS(=O)Cc2cnn(-c3ccccc3)c2-n2cccc2)CC1 (stereo not drawn)
RP-LC retention time: 614 s

COc1ccc(F)cc1-c1cc(NC(=O)[C@@H]2CCCNC2)ncc1Cl
RP-LC retention time: 737 s

O=C1c2oc3ccccc3c(=O)c2C(c2cccnc2)N1c1nccs1 (stereo not drawn)
RP-LC retention time: 708 s

COC(=O)Cn1c(C2CC(=O)N(Cc3ccccc3)C2)nc2ccccc21 (stereo not drawn)
RP-LC retention time: 770 s

CCc1nc2cccnc2n1CCN1CCN(C(=O)Nc2ccc(Br)cc2F)CC1
RP-LC retention time: 624 s

Cc1[nH]c(/C=C2\C(=O)Nc3ccccc32)c(C)c1CCC(=O)O
RP-LC retention time: 820 s

CCOc1cc(=O)n2c(c1C(=O)NCCCN1CCCc3ccccc31)CCCCC2
RP-LC retention time: 733 s

COC(=O)c1ncn2c1C(=O)N(CCC1=CCCCC1)C(C)(C(=O)NCc1ccccc1)C2 (stereo not drawn)
RP-LC retention time: 821 s

Cn1nc(-c2nnc(-c3ccccc3Cl)o2)c2c1CCN(C(=O)c1ccco1)C2
RP-LC retention time: 784 s

COc1cccc(-n2ccc(=O)c(-c3nc(-c4ccc(OC)c(OC)c4)no3)n2)c1
RP-LC retention time: 817 s

O=c1ccc(-c2ccc(Cl)cc2)nn1CCc1nc(-c2cccs2)no1
RP-LC retention time: 1000 s

CSc1cccc(NC(=O)Cn2cccc2-c2nc(-c3ccccc3)no2)c1
RP-LC retention time: 1070 s

CCn1nccc1-c1cccc(-c2noc(CNC(=O)c3ccccc3)n2)c1
RP-LC retention time: 874 s

CCc1onc(C)c1C1CCCN1C(=O)c1cccc(F)c1 (stereo not drawn)
RP-LC retention time: 784 s

COc1ccc(C(C)NC(=O)c2cn3cc(C)ccc3n2)cc1OC (stereo not drawn)
RP-LC retention time: 630 s

COc1ccc(C(C)NC(=O)c2cn3ccc(C)cc3n2)cc1 (stereo not drawn)
RP-LC retention time: 645 s

CCC(=O)N1CCc2sc(C(=O)NC3CCN(Cc4ccccc4)CC3)cc2C1
RP-LC retention time: 604 s

CN(Cc1ccco1)C(=O)c1nc2ccccn2c1-c1ccc(F)cc1
RP-LC retention time: 705 s

COc1ccc(C2(C(=O)N3CCCOCCNC(=O)[C@@H]4CCCC[C@@H]43)CC2)cc1
RP-LC retention time: 750 s

COc1ccc(N2CCN(C(=O)COc3ccc(NC(=O)C4CC4)cn3)CC2)cc1
RP-LC retention time: 673 s

CCc1noc(-c2cnc3nc(C)ccc3c2NCc2cc(OC)ccc2OC)n1
RP-LC retention time: 735 s

COCCN1CC2(CCN(S(=O)(=O)c3cccc(Cl)c3)CC2)C1c1ccncc1 (stereo not drawn)
RP-LC retention time: 631 s

Cc1cccc(C)c1NC(=O)Cn1c(C)nc2c(sc3nc(-c4ccccc4)ccc32)c1=O
RP-LC retention time: 1080 s

COC(=O)c1c(C)[nH]c(C(=O)N2CCCC(C(=O)NCc3ccc(Cl)cc3)C2)c1C (stereo not drawn)
RP-LC retention time: 809 s

CCN1CCN(CC2CCN(S(=O)(=O)c3ccc4c(c3)CCC4)CC2)CC1
RP-LC retention time: 624 s

Cc1ccc(-c2nc(C)cc3nn(CC(=O)Nc4cccc(Br)c4)c(=O)n23)cc1
RP-LC retention time: 953 s

CC(=O)Nc1ccc(NC(=O)CSc2ccc(N3CCCC(C(=O)NC4CC4)C3)nn2)cc1 (stereo not drawn)
RP-LC retention time: 584 s

CCCc1ccc(S(=O)(=O)N2CCC(C)(C(=O)NCc3ccc(F)cc3)CC2)cc1
RP-LC retention time: 1070 s

O=C(C1CCCCC1)N1CC(c2nc(-c3ccccc3)no2)C2(CCOCC2)C1 (stereo not drawn)
RP-LC retention time: 963 s

CCOc1ccc(-c2ccc(=O)n(CCc3nc(-c4ccccc4)no3)n2)cc1
RP-LC retention time: 1000 s

O=C(NC1CCc2ccccc21)C1CCN(c2ncccc2-c2nc(-c3ccccc3)no2)CC1 (stereo not drawn)
RP-LC retention time: 1120 s

Cc1ccc(Sc2nccnc2N2CCC(C(=O)N3CCN(c4ccccc4C)CC3)CC2)cc1
RP-LC retention time: 1330 s

C[C@@H]1CN(C(=O)c2cccs2)C[C@H]1c1nc(-c2ccccc2)no1
RP-LC retention time: 965 s

Cc1c(-c2noc(-c3ccc(F)cc3)n2)nnn1-c1ccc(F)cc1
RP-LC retention time: 1060 s

CNC(=O)c1nc(N2CCSCC2)c2cnn(C)c2n1
RP-LC retention time: 632 s

CCN(CC)c1ccc(NC(=O)Cn2cnc3c(sc4nc(-c5ccccc5)ccc43)c2=O)c(C)c1
RP-LC retention time: 723 s

CCN1C(=O)c2cccnc2Sc2cc(NC(=O)c3ccc(C(C)C)cc3)ccc21
RP-LC retention time: 998 s

O=C(NCCc1cccs1)c1ccc2ccnc(N3CCN(c4ccc(Cl)cc4)CC3)c2c1
RP-LC retention time: 931 s

O=C(NCc1ccnc(N2CCSCC2)c1)Nc1ccc(F)c(Cl)c1
RP-LC retention time: 673 s

COc1ccc(C(C)NC(=O)C2=C3CCCN3c3ccc(F)cc3S2(=O)=O)cc1OC (stereo not drawn)
RP-LC retention time: 821 s

CNC(=O)N1CCCN(C)c2ccccc21
RP-LC retention time: 484 s

Cc1cc(C(=O)N2CC(Oc3ccc(-c4nc(-c5ccccc5)no4)cc3)C2)n(C)n1
RP-LC retention time: 1060 s

c1ccc(-c2nc(-c3cnccn3)no2)c(OC2CCN(Cc3ccc4c(c3)CCO4)C2)c1 (stereo not drawn)
RP-LC retention time: 689 s

CCCCNC(=O)C1CCCN(c2nnc3ccc(Cl)cn23)C1 (stereo not drawn)
RP-LC retention time: 704 s

CCNC(=O)CCCN1C(=O)CCn2nc(-c3cn(C)c4ccccc34)cc21
RP-LC retention time: 695 s

COc1cc(-c2nc(Cn3cnc4ccccc4c3=O)no2)cc(OC)c1OC
RP-LC retention time: 795 s

Cc1sc2ccn(Cc3ccc(F)cc3)c(=O)c2c1C(=O)NCc1cccnc1
RP-LC retention time: 632 s

Cc1ccc(-c2ccc(N3CCCC(C(=O)NCC4CCCO4)C3)nn2)cc1C (stereo not drawn)
RP-LC retention time: 663 s

Cc1[nH]nc(-c2c(C)sc(C)c2S(=O)(=O)N2CCN(c3ccccc3F)CC2)c1C
RP-LC retention time: 1010 s

CCCn1cnc2cc(CNC(=O)c3ccc(C(C)(C)C)cc3)ccc21
RP-LC retention time: 720 s

C[C@H](NC(=O)Cc1cc(F)cc(F)c1)C(=O)N[C@H](C(=O)OC(C)(C)C)c1ccccc1
RP-LC retention time: 944 s

CCc1[nH]nc(S(=O)(=O)N2CCN(c3ccccn3)CC2)c1C(=O)OC
RP-LC retention time: 560 s

Cc1ccc(-c2nnc(N3CCC(C(=O)NCCC4=CCCCC4)CC3)o2)cc1
RP-LC retention time: 990 s

Cc1cc2n(n1)CCC(=O)N2CCCC(=O)NCCCN1CCCCCC1
RP-LC retention time: 570 s

CSc1ccc(CNC(=O)CN2CCc3ccccc3C2C(=O)N2CCCCC2)cc1 (stereo not drawn)
RP-LC retention time: 889 s

O=C(Cn1c(=O)c2cccn2c2ccc(F)cc21)NCCCN1CCCC1=O
RP-LC retention time: 647 s

Nc1ccccc1-n1nc2ccc3ccccc3c2n1
RP-LC retention time: 1220 s

Cc1ccnc(C(=O)Nc2ccc(Nc3cc(N4CCOCC4)nc(C)n3)cc2)n1
RP-LC retention time: 566 s

O=C(COc1ccc(Cl)cc1)Nc1cccc2c1C(=O)NC2=O
RP-LC retention time: 854 s

Cc1c(-c2nn3c(Cc4ccccc4)nnc3s2)nnn1-c1ccc(Cl)cc1
RP-LC retention time: 1040 s

COCCCN1CN=C(Nc2nc(C)c3cc(OC)ccc3n2)NC1
RP-LC retention time: 643 s

CCc1nc2c(c(=O)n1CC(=O)NC1CCCC1)CN(Cc1ccccc1)CC2
RP-LC retention time: 621 s

Cc1nc(-c2cc(S(=O)(=O)NCc3ccc(F)c(Cl)c3)c(C)s2)cs1
RP-LC retention time: 1010 s

Cc1csc(-c2cc(S(=O)(=O)NCc3ccccc3Cl)c(C)s2)n1
RP-LC retention time: 1050 s

Cc1cc(C)cc(NC(=O)Cc2nnc(-c3ccc4ncccc4c3)o2)c1
RP-LC retention time: 786 s

O=C(COc1ccccc1)Nc1c(C(=O)N2CCN(c3ccccn3)CC2)oc2ccccc12
RP-LC retention time: 760 s

O=C(Nc1cccnc1)c1ccc(S(=O)(=O)NC2CC2)cc1
RP-LC retention time: 552 s

COc1ccccc1NC(=O)Cn1ncc2c(N3CCN(c4ccccn4)CC3)ncnc21
RP-LC retention time: 600 s

CCCNC(=O)N1CCC(c2nc(-c3ccncc3)no2)C1 (stereo not drawn)
RP-LC retention time: 604 s

O=C(NCc1nc(-c2ccc(-c3csc(C4CC4)n3)cc2)no1)c1ccccc1
RP-LC retention time: 1030 s

Cc1ccc(NC(=O)C2CCN(S(=O)(=O)c3cc(-c4noc(C5CCC5)n4)cs3)CC2)cc1
RP-LC retention time: 1020 s

COc1ccc2c(=O)c(Oc3ccc(C(=O)Nc4nccs4)cc3)c(C)oc2c1
RP-LC retention time: 788 s

Cc1cc(Cl)ccc1OCC(=O)N1CCCCC1c1nncn1C (stereo not drawn)
RP-LC retention time: 767 s

CC1=C(c2ccccc2)S(=O)(=O)N=C1N1CCCN(C(=O)C2CCCCC2)CC1
RP-LC retention time: 868 s

CCOC(=O)c1noc2ncnc(Nc3ccc(C)cc3C)c12
RP-LC retention time: 1030 s

CCSc1nnc(NC(=O)C2CCN(S(=O)(=O)c3cn(CC)cn3)CC2)s1
RP-LC retention time: 715 s

Cc1cccc(NC(=O)CSc2cc(N3CCC(C)CC3)ncn2)c1
RP-LC retention time: 1040 s

COc1ccc(C(=O)Nc2nc(-c3ccc4c(c3)NC(=O)CO4)c(C)s2)cc1OC
RP-LC retention time: 814 s

O=C(NCc1ccccc1)c1nnc(-c2ccc(S(=O)(=O)N3CCOCC3)cc2)o1
RP-LC retention time: 816 s

O=C(Nc1ccc2[nH]nc(-c3ccncc3)c2c1)[C@@H]1CCN(CC(=O)N2CCN(c3ccc(-c4ncccn4)cc3)CC2)C1
RP-LC retention time: 628 s

Cc1ccc(NC(=O)c2cccc3c2SCCC3=O)nc1
RP-LC retention time: 726 s

COc1cccc(N2CCN(Cc3nc(-c4ccc(N5CCCC(C)C5)nc4)no3)CC2)c1 (stereo not drawn)
RP-LC retention time: 882 s

CC(C)n1cnc2cc(CNC(=O)C3CCCC3)ccc21
RP-LC retention time: 595 s
